What was measured:
lambsquarters = assay: Test E lambsquarters; type: in vivo, Chenopodium album; conditions: Postemergence
Method in brief: (§1)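 Greenhouse-grown plants are treated (postemergence: 1- to 4-leaf stage, sandy loam/potting mix 60:40), then evaluated visually versus untreated controls some 21 to 28 days later.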

jointed goatgrass = assay: Test E jointed goatgrass; type: in vivo, Aegilops cylindrica; conditions: Postemergence
Method in brief: as §1

redroot pigweed [1] = assay: Test E redroot pigweed; type: in vivo, Amaranthus retroflexus; conditions: Postemergence
Method in brief: as §1

littleseed canarygrass = assay: Test E littleseed canarygrass; type: in vivo, Phalaris minor; conditions: Postemergence
Method in brief: as §1

downy brome = assay: Test E downy brome; type: in vivo, Bromus tectorum; conditions: Postemergence; for Plant response rating, Downy brome: 0 to 100 scale
Method in brief: as §1

blackgrass = assay: Test E blackgrass; type: in vivo, Alopecurus myosuroides; conditions: Postemergence
Method in brief: as §1

redroot pigweed [2] = assay: Test C postemergence redroot pigweed; type: in vivo, Amaranthus retroflexus; conditions: 0 to 100 scale, 0 no effect, 100 complete control
Method in brief: (§2)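 Greenhouse postemergence test: compound applied in solvent/surfactant formulation to established plants; visual scoring 0–100 against untreated controls after roughly two to three weeks (14–21 days).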

surinam grass = assay: Test C postemergence surinam grass; type: in vivo, Brachiaria decumbens; conditions: 0 to 100 scale, 0 no effect, 100 complete control
Method in brief: as §2

arrowleaf sida = assay: Test C postemergence arrowleaf sida; type: in vivo, Sida rhombifolia; conditions: 0 to 100 scale, 0 no effect, 100 complete control
Method in brief: as §2

wild buckwheat = assay: Test E wild buckwheat; type: in vivo, Polygonum convolvulus; conditions: Postemergence
Method in brief: as §1

windgrass = assay: Test E windgrass; type: in vivo, Apera spica-venti; conditions: Postemergence, Rate 62 g/ha; 0 to 100 scale
Method in brief: as §1

annual bluegrass = assay: Test E annual bluegrass; type: in vivo, Poa annua; conditions: Preemergence
chickweed = assay: Test E chickweed; type: in vivo, Stellaria media; conditions: Preemergence
ladysthumb smartweed = assay: Test C postemergence ladysthumb smartweed; type: in vivo, Polygonum persicaria; conditions: 0 to 100 scale, 0 no effect, 100 complete control
Method in brief: as §2

[3] = Rate 250 g/ha, 0 to 100 scale (0 no effect, 100 complete control)
[4] = Rate 62 g/ha, 0 to 100 scale, 0 no effect, 100 complete control
[5] = Rate 125 g/ha, 0 to 100 scale (0 no effect, 100 complete control)

**Q.** What does the source list for C=CCn1c(=O)on(C(=O)N(c2ccccc2)C(C)C)c1=O [Compound 93]?
**A.** Plant response rating, Lambsquarters (lambsquarters; Rate 62 g/ha, 0 to 100 scale): 0; Plant response rating, Lambsquarters (lambsquarters; Rate 125 g/ha, 0 to 100 scale): 0; Plant response rating, Lambsquarters (lambsquarters; [3]): 0; Plant response rating, Jointed goatgra (jointed goatgrass; Rate 62 g/ha, 0 to 100 scale): 0; Plant response rating, Jointed goatgra (jointed goatgrass; Rate 125 g/ha, 0 to 100 scale): 0; Plant response rating, Jointed goatgra (jointed goatgrass; [3]): 0; Plant response rating, Redroot pigweed (redroot pigweed [1]; Rate 62 g/ha, 0 to 100 scale): 0; Plant response rating, Redroot pigweed (redroot pigweed [1]; Rate 125 g/ha, 0 to 100 scale): 0; Plant response rating, Redroot pigweed (redroot pigweed [1]; [3]): 0; Plant response rating, LS canarygrass (littleseed canarygrass; Rate 62 g/ha, 0 to 100 scale): 0; Plant response rating, LS canarygrass (littleseed canarygrass; Rate 125 g/ha, 0 to 100 scale): 0; Plant response rating, LS canarygrass (littleseed canarygrass; [3]): 0; Plant response rating, Downy brome (downy brome; Rate 62 g/ha): 0; Plant response rating, Downy brome (downy brome; Rate 125 g/ha): 0; Plant response rating, Downy brortie (downy brome; [3]): 0; Plant response rating, Blackgrass (blackgrass; Rate 62 g/ha, 0 to 100 scale): 10; Plant response rating, Blackgrass (blackgrass; Rate 125 g/ha, 0 to 100 scale): 30; Plant response rating, Blackgrass (blackgrass; [3]): 40; Plant response rating, Redroot pigweed (redroot pigweed [2]; Rate 140 g/ha): 5; Plant response rating, Redroot pigweed (redroot pigweed [2]; Rate 560 g/ha): 10; Plant response rating, Redroot pigweed (redroot pigweed [2]; Rate 1120 g/ha): 85; Plant response rating, Surinam grass (surinam grass; Rate 140 g/ha): 0; Plant response rating, Surinam grass (surinam grass; Rate 280 g/ha): 45; Plant response rating, Surinam grass (surinam grass; Rate 560 g/ha): 50; Plant response rating, Surinam grass (surinam grass; Rate 1120 g/ha): 85; Plant response rating Arrowleaf sida (arrowleaf sida; Rate 280 g/ha): 10; Plant response rating Arrowleaf sida (arrowleaf sida; Rate 560 g/ha): 60; Plant response rating Arrowleaf sida (arrowleaf sida; Rate 1120 g/ha): 60; Plant response rating, Wild buckwheat (wild buckwheat; Rate 62 g/ha, 0 to 100 scale): 0; Plant response rating, Wild buckwheat (wild buckwheat; Rate 125 g/ha, 0 to 100 scale): 0; Plant response rating, Wild buckwheat (wild buckwheat; [3]): 0; Plant response rating, Windgrass (windgrass): 60; Plant response rating, Annual bluegras (annual bluegrass; [4]): 10; Plant response rating, Annual bluegras (annual bluegrass; [5]): 50; Plant response rating, Annual bluegras (annual bluegrass; Rate 250 g/ha, 0 to 100 scale): 65; Plant response rating, Chickweed (chickweed; [4]): 60; Plant response rating, Chickweed (chickweed; [5]): 20; Plant response rating, Chickweed (chickweed; Rate 250 g/ha, 0 to 100 scale): 100; Plant response rating Ladysthumb (ladysthumb smartweed; Rate 140 g/ha): 0; Plant response rating Ladysthumb (ladysthumb smartweed; Rate 280 g/ha): 0; Plant response rating Ladysthumb (ladysthumb smartweed; Rate 560 g/ha): 80
